{"source": "patent US7560252B2", "about": "“Borrelidin-producing polyketide synthase and its use” (priority 2002, dated 2009)", "key": {"[1]": {"system": "S. albus J1074/pEM4A", "test": "soaked disk bioassay, control strain", "format": "cell-based, Streptomyces albus J1074", "settings": "disks with borrelidin at 100 & 200 μg/ml, Bennett's agar, overnight at 30° C.", "source_text": "The self-resistance of S. parvulus strains to borrelidin is most probably due to the product of borO, which encodes a threonyl tRNA synthetase homologue. Threonyl-tRNA synthetase is the molecular target of borrelidin in sensitive strains (Paetz & Ness, 1973). It is predicted that BorO is resistant to the action of borrelidin, and acts to produce threonyl-tRNAs in cells that make borrelidin, effectively complementing the normal threonyl-tRNA which are inhibited. To verify this hypothesis borO was amplified by PCR and cloned in to the expression vector pEM4A, which puts borO under the control of the strong constitutive promoter ermE* (example 26). The resulting vector pborOR was then transformed into the borrelidin-sensitive strain Streptomyces albus J1074 (Chater & Wilde, 1980).\nResistance to borrelidin was assayed on Bennett's agar containing apramycin at 25 μg/ml. Spores of S. albus J1074/pborOR and the control S. albus J1074/pEM4A were spread onto plates and then disks containing borrelidin at 100 & 200 μg/ml were laid upon the lawn of spores and incubated overnight at 30° C."}, "[2]": {"system": "capillary tube formation", "settings": "rat aorta matrix culture model; cited from earlier work"}, "[3]": {"system": "human umbilical vein endothelial cells (HUVEC)", "settings": "cited from earlier work"}, "[4]": {"system": "protein synthesis", "settings": "cited from earlier work"}, "[5]": {"system": "WiDr cells", "settings": "1.8 mg/kg by intraperitoneal injection; higher degree than TNP-470; cited from earlier work"}, "[6]": {"system": "B16-BL6 melanoma cells", "settings": "same dosage (1.8 mg/kg); cited from earlier work"}, "[7]": {"system": "WiDr cell lines of human colon cancer", "settings": "JP 9-227,549 and JP 8-173,167; cited from earlier work"}, "[8]": {"system": "PC-3 cell lines of human prostate cancer", "settings": "JP 9-227,549 and JP 8-173,167; cited from earlier work"}, "[9]": {"system": "Lewis lung adenocarcinoma", "settings": "cited from earlier work"}, "[10]": {"system": "haploid and diploid cells", "settings": "at concentrations that do not affect gross protein biosynthesis; cited from earlier work"}, "[11]": {"system": "caspase-3", "settings": "cited from earlier work"}, "[12]": {"system": "caspase-8", "settings": "cited from earlier work"}, "[13]": {"system": "endothelial cell proliferation and endothelial capillary formation", "settings": "with respect to borrelidin; cited from earlier work"}, "[14]": {"system": "mouse colon adenocarcinoma cells", "settings": "subtoxic dose; cited from earlier work"}}, "data": [{"compound": "C[C@@H]1C[C@H](C)C[C@H](C)[C@@H](O)CC(=O)O[C@H]([C@@H]2CCC[C@H]2C(=O)O)C/C=C/C=C(/C#N)[C@H](O)[C@@H](C)C1", "note": "[Borrelidin]", "values": [{"measurement": "haloes of growth inhibition", "setting": "[1]", "result": "Haloes indicating inhibition of growth were observed"}, {"measurement": "IC50", "setting": "[2]", "result": 800, "unit": "pM"}, {"measurement": "IC50 capillary tube formation", "setting": "[2]", "result": 0.4, "unit": "ng/mL"}, {"measurement": "IC50 anti-proliferative activity towards HUVEC", "setting": "[3]; cell growth assay", "result": 6, "unit": "ng/mL"}, {"measurement": "anti-proliferative activity weaker than the anti-angiogenesis activity", "setting": "[3]; measured in the same medium", "result": 15, "unit": "fold"}, {"measurement": "IC50 for anti-angiogenesis activity lower than for inhibition of protein synthesis", "setting": "[4]; 0.4 ng/ml versus 20 ng/ml", "result": 50, "unit": "fold"}, {"measurement": "IC50 inhibition of protein synthesis", "setting": "[4]; cultured rat cells", "result": 20, "unit": "ng/mL"}, {"measurement": "increment of vascular volume induced by WiDr cells", "setting": "[5]", "result": "significantly reduce the increment of vascular volume"}, {"measurement": "inhibition of the formation of spontaneous lung metastases", "setting": "[6]", "result": "effective"}, {"measurement": "effectiveness against WiDr cell lines", "setting": "[7]", "result": "effective"}, {"measurement": "effectiveness against PC-3 cell lines", "setting": "[8]", "result": "effective"}, {"measurement": "propagation of metastatic nodules", "setting": "[9]; after removal of the primary tumour", "result": "weakly inhibited"}, {"measurement": "cell cycle arrest in late G1 phase", "setting": "[10]", "result": "arrests both haploid and diploid cells in late G1 phase"}, {"measurement": "caspase-3 activation", "setting": "[11]", "result": "activate"}, {"measurement": "caspase-8 activation", "setting": "[12]", "result": "activate"}]}, {"compound": "C[C@@H]1C[C@H](C)C[C@H](C)[C@@H](O)CC(=O)O[C@H]([C@@H]2CCC[C@H]2C(=O)NCCN2CCOCC2)C/C=C/C=C(/C#N)[C@H](O)[C@@H](C)C1", "note": "[borrelidin-morpholinoethyl amide]", "values": [{"measurement": "selectivity index, capillary formation inhibitory activity versus cell proliferation", "setting": "[13]", "result": 6, "unit": "fold"}]}, {"compound": "C[C@@H]1C[C@H](C)C[C@H](C)[C@@H](O)CC(=O)O[C@H]([C@@H]2CCC[C@H]2C(=O)OCCN2CCOCC2)C/C=C/C=C(/C#N)[C@H](O)[C@@H](C)C1", "note": "[borrelidin-morpholinoethyl ester]", "values": [{"measurement": "selectivity index, capillary formation inhibitory activity versus cell proliferation", "setting": "[13]", "result": 60, "unit": "fold"}]}, {"compound": "CC1CC(C)CC(C)C(O)CC(=O)OC(C2CCCC2C(=O)NCc2cccnc2)C(C#N)=CC=CCC(O)C(C)C1", "note": "(stereo not drawn) [borrelidin-(3-picolylamide)]", "values": [{"measurement": "increase of micrometastases", "setting": "[9]; rats, intraperitoneal and per os administration at subtoxic doses", "result": "inhibit very considerably"}, {"measurement": "metastasis-forming ability of cells transplanted into mouse spleen", "setting": "[14]", "result": "considerably decreased"}]}, {"compound": "CC1CC(C)CC(C)C(O)C(C#N)=CC=CCC(C2CCCC2C(=O)OCCc2ccccn2)OC(=O)CC(O)C(C)C1", "note": "(stereo not drawn) [borrelidin-(2-pyridyl)-ethyl ester]", "values": [{"measurement": "selectivity index, capillary formation inhibitory activity versus cell proliferation", "setting": "[13]", "result": 7.5, "unit": "fold"}]}, {"compound": "borrelidin-amide", "values": [{"measurement": "selectivity index, capillary formation inhibitory activity versus cell proliferation", "setting": "[13]", "result": 37, "unit": "fold"}]}]}
